Laboratory results as given in patent US8202834B2, “Fat regulation” (FibroGen, Inc., priority 2002, dated 2012).

Tests used:
[1] = Diet-induced obesity model, high-fat diet, 28 days; type: in vivo, C57BL/6J mice; conditions: 75 mg/kg/day oral gavage, vs high-fat vehicle, p<0.05, FIG. 6A
Description: The effect of the present compounds and methods on fat regulation, e.g., fat uptake and storage, etc., and on regulation of body weight was analyzed as follows. C57Bl/6J mice fed a high-fat diet develop severe obesity, hyperglycemia, and hyperinsulinemia, and are a model of diet-induced obesity, Type 2 diabetes, and impaired glucose tolerance. Forty male C57BL/6J mice obtained from The Jackson Laboratory (Bar Harbor Me.) were divided into the following experimental groups: Group 1: vehicle control animals fed standard mouse chow (n=10); Group 2: vehicle control animals fed high-fat mouse chow (45% fat from Research Diets) (n=10); Group 3: animals fed high-fat mouse chow and administered 75 mg/kg/day compound E by oral gavage (n=10); Group 4: animals fed high-fat mouse chow and administered 75 mg/kg/day compound A by oral gavage (n=10). The feeding regimen was continued for 28 days with weekly measurement of body weight. Animals were then sacrificed and their organs and fat pads were harvested and weighed.

[2] = tested on: GluT-1; experiment: GluT-1 protein levels in H9c2 cells, Western blot; type: cell-based, rat; conditions: H9c2 cells, 5, 10 and 20 μM, 16 hours; FIG. 9A
Description: (§1) As the compounds and methods of the invention regulate fat metabolism, which is tightly coordinated with glucose regulation, the effect of compounds and methods on glucose uptake and metabolism was analyzed. Human SSC-25 (squamous cell carcinoma) or rat H9c2 (ventricular cardiomyocyte) cells were grown to confluence in 100 mm culture dishes at 37° C., 10% CO2 in DMEM with 10% fetal calf serum. Cells were then washed twice with PBS and incubated with vehicle control, compound D (10 and 25 μM), or compound C (5, 10, and 20 μM) for 16 hours. Plates were placed on ice, culture supernatant was removed, and lysis buffer-1 (LB-1: 10 mM Tris pH 7.4, 1 mM EDTA, 150 mM sodium chloride, 0.5% IGEPAL) was added. Cells were harvested by scraping, incubated for 15 minutes on ice, and then centrifuged at 3,000×g for 5 minutes at 4° C. The supernatant, which represents the cytosolic fraction, was collected and cytosolic proteins were separated under reducing conditions using SDS-polyacrylamide gel electrophoresis (SDS-PAGE) with equal amounts of protein loaded per lane.
(§2) SDS-PAGE was conducted at 150 V for 2 hours, after which the proteins were transferred to a PVDF membrane at 400 mA for 1.5 hours at 4° C. […]

[3] = tested on: DEC1/Stra13; experiment: DEC1/Stra13 expression in tissues after 4 days of oral dosing; type: in vivo, mouse; conditions: adipose, kidney, liver and muscle; oral gavage once per day for 4 days, 4 h after final dose; FIG. 3B
Description: (§3) To further investigate the effect of the methods and compounds of the present invention on expression of adipogenic factors, twelve Swiss Webster male mice (30-32 g) obtained from Simonsen, Inc. were treated by oral gavage once per day for 4 days with 4 ml/kg volume of either 0.5% CMC (0 mg/kg/day), 25 mg/ml compound D in 0.5% CMC (100 mg/kg/day), or 7.5 mg/ml and 25 mg/ml of compound B in 0.5% CMC (30 and 100 mg/kg/day, respectively). Four hours after the final dose, animals were anesthetized, sacrificed, and approximately 150 mg of adipose, heart, kidney, liver, lung, and muscle were isolated and stored in RNALATER solution (Ambion) at −20° C. RNA isolation and gene expression analysis was performed as described in Example 3 above.

[4] = tested on: HIF-1α; experiment: HIFα stabilization in cells, nuclear fraction Western blot; type: cell-based, human; conditions: various cell types, overnight incubation; FIG. 8A
Description: Compounds of the present invention for use in the present methods stabilize HIFα, inhibit HIF hydroxylase activity and/or HIFα hydroxylation, etc. Thus, compounds can be identified, e.g., by their ability to stabilize HIFα. Stabilization of HIFα using compounds and methods of the present invention was examined as follows. Human cells derived from adenovirus-transformed fetal kidney epithelium (293A), cervical epithelial adenocarcinoma (HeLa), hepatocellular carcinoma (Hep3B), squamous carcinoma (SSC-25), and lung fibroblast (HLF) tissues (see, e.g., American Type Culture Collection, Manassas Va.; and Qbiogene, Carlsbad Calif.) were separately seeded into 100 mm culture dishes and grown at 37° C., 20% O2, 5% CO2 in media as follows: HeLa cells in Dulbecco's Modification of Eagle's Medium (DMEM), 2% fetal bovine serum (FBS); HLF cells in DMEM, 10% FBS; 293A cells in DMEM, 5% FBS; and Hep3B cells in Minimal Essential Medium (MEM), Earle's BSS (Mediatech Inc., Herndon Va.), 2 mM L-glutamine, 0.1 mM non-essential amino acids, 1 mM sodium pyruvate, 10% FBS. When cell layers reached confluence, the media was replaced with OPTI-MEM media (Invitrogen Life Technologies, Carlsbad Calif.) and cell layers were incubated for approximately 24 hours in 20% O2, 5% CO2 at 37° C. […]

[5] = tested on: GluT-1; experiment: GluT-1 protein levels in SCC-25 cells, Western blot; type: cell-based, human; conditions: 10 and 25 μM, 16 hours, FIG. 9A
Description: as §1, §2

[6] = tested on: PPAR-γ; experiment: PPAR-γ expression in tissue after 4 days of oral dosing; type: in vivo, mouse; conditions: cardiac tissue; oral gavage once per day for 4 days; FIG. 3C
Description: as §3

[7] = tested on: HIF-1α; experiment: HIF-1α in nuclear fractions, TRANSAM HIF-1 ELISA; type: cell-based, human; conditions: 293A and Hep3B cells, vs vehicle; FIG. 8B
Description: Compounds of the present invention for use in the present methods stabilize HIFα, inhibit HIF hydroxylase activity and/or HIFα hydroxylation, etc. Thus, compounds can be identified, e.g., by their ability to stabilize HIFα. Stabilization of HIFα using compounds and methods of the present invention was examined as follows. Human cells derived from adenovirus-transformed fetal kidney epithelium (293A), cervical epithelial adenocarcinoma (HeLa), hepatocellular carcinoma (Hep3B), squamous carcinoma (SSC-25), and lung fibroblast (HLF) tissues (see, e.g., American Type Culture Collection, Manassas Va.; and Qbiogene, Carlsbad Calif.) were separately seeded into 100 mm culture dishes and grown at 37° C., 20% O2, 5% CO2 in media as follows: HeLa cells in Dulbecco's Modification of Eagle's Medium (DMEM), 2% fetal bovine serum (FBS); HLF cells in DMEM, 10% FBS; 293A cells in DMEM, 5% FBS; and Hep3B cells in Minimal Essential Medium (MEM), Earle's BSS (Mediatech Inc., Herndon Va.), 2 mM L-glutamine, 0.1 mM non-essential amino acids, 1 mM sodium pyruvate, 10% FBS. When cell layers reached confluence, the media was replaced with OPTI-MEM media (Invitrogen Life Technologies, Carlsbad Calif.) and cell layers were incubated for approximately 24 hours in 20% O2, 5% CO2 at 37° C. A compound of the invention (compound B, D, F, G, or H) or vehicle control (0.5 to 1% DMSO) was then added to existing medium, and incubation was continued overnight.
Alternatively, nuclear fractions were prepared using a nuclear extract kit (Active Motif, Carlsbad Calif.) and were analyzed for HIF-1α using a TRANSAM HIF-1 ELISA kit (Active Motif) according to the manufacturer's instructions.

## O=C(O)CNC(=O)c1nc2cc(Cl)ccc2cc1O [compound A, [(7-Chloro-3-hydroxy-quinoline-2-carbonyl)-amino]-acetic acid]
[1]
  weight gain: significantly less weight gain

## O=C(O)CNC(=O)c1ncc2cc(Oc3ccccc3)ccc2c1O [compound C, [(4-Hydroxy-7-phenoxy-isoquinoline-3-carbonyl)-amino]-acetic acid]
[2]
  protein levels of GluT-1: increased protein levels of GluT-1

## O=C(O)c1c[nH]c2c(ccc3cccnc32)c1=O [compound D, 4-Oxo-1,4-dihydro-[1,10]phenanthroline-3-carboxylic acid]
[3]
  DEC1/Stra13 expression: increased DEC1/Stra13 expression
[4]
  HIFα stabilization: stabilized HIFα
[5]
  protein levels of GluT-1: increased protein levels of GluT-1
[6]
  PPAR-γ expression: decreased PPAR-γ expression

## COc1ccc2c(O)c(C(=O)NCC(=O)O)nc(Cl)c2c1 [compound E, [(1-Chloro-4-hydroxy-7-methoxy-isoquinoline-3-carbonyl)-amino]-acetic acid]
[1]
  weight gain: significantly less weight gain

## CC(C)Oc1ccc2nc(C(=O)NCC(=O)O)c(O)cc2c1 [compound F, [(3-Hydroxy-6-isopropoxy-quinoline-2-carbonyl)-amino]-acetic acid]
[7]
  stabilization and accumulation of HIFα: stabilization and accumulation of HIFα

## O=C(O)CNC(=O)c1ncccc1O [compound G, [(3-Hydroxy-pyridine-2-carbonyl)-amino]-acetic acid]
[7]
  stabilization and accumulation of HIFα: stabilization and accumulation of HIFα

## COC(=O)CNC(=O)c1nc(Cl)c2cc(OCc3ccccc3)ccc2c1O [compound H, [(7-Benzyloxy-1-chloro-4-hydroxy-isoquinoline-3-carbonyl)-amino]-acetic acid methyl ester]
[7]
  stabilization and accumulation of HIFα: stabilization and accumulation of HIFα
